Here are results for 87 molecules from a melting point compilation (Tetko et al.; mined from patent text by program, amines drawn as free bases though some values may be those of a salt).

One may read the melting point as the temperature, or range, at which the solid turns liquid. The molecule `COC(=O)[C@H](CO)NC(=O)c1ncn2c1CN(C)C(=O)c1c(Cl)cccc1-2` displayed a melting point of 178 to 180 °C.

In turn, `Fc1cccc(COc2nnc(-c3ccc4c(c3)CCO4)o2)c1` showed a melting point of 91 to 92 °C.

For `O=C(c1cccs1)c1cnn2c(-c3cccc(-c4nnnn4CC4CCC4)c3)ccnc12`, the melting point was 204 °C.

For the molecule `NC(=O)NCc1cc2c(Oc3ccc(Cl)cc3)cncc2s1`, the melting point is 202 to 204 °C.

For the molecule `CCOCn1c(-c2ccc(Cl)cc2)c(C#N)c(Cl)c1C(F)(F)F`, the melting point stood at 104 °C.

As for `CCOC(=O)CC(=O)c1cc(F)c(F)cc1F`, the melting point was 57 to 59 °C.

For the molecule `COc1ccc(-c2ccc3c(=O)[nH]c(=O)[nH]c3n2)cc1COC(=O)C(C)(C)C`, the melting point lay within 260 to 266 °C.

`CC(C)Cc1nc2sc3c(NCCN4CCOCC4)ncnc3c2c2c1CCC(C)(C)C2` returned a melting point of 190 °C.

`O=C(O)c1cn(-c2ccc(F)cc2F)c2c(F)c(N3Cc4cccc(F)c4C3)c(F)cc2c1=O` yielded a melting point greater than 300 °C.

As to `CCOC(=O)Cn1c(C(=O)OCC)c2c(c1C(=O)OCC)OCCCO2`, the melting point is 140 °C.

In the case of `COC(=O)CCc1nc(-c2ccc(O)cc2)c(-c2ccccc2)o1`, the melting point lay in the range of 115 to 116 °C.

In the case of `COc1cc(C)c(N)c(C)c1Cc1ccc(C(C)C)cc1`, the melting point was 91 to 92 °C.

On to `C=CS(=O)(=O)c1ccc(C)cc1`, for which the melting point amounted to 66 °C.

`COC(=O)c1cnc(Cl)c(C)n1`: the melting point lay in the range of 49 to 50 °C.

Turning to `CCCCCC(C#Cc1ccc(C(=O)O)cc1)c1ccc2c(c1)C(C)(C)CCC2(C)C` (racemic), the melting point is 115 to 116 °C.

As for `Cc1cnc(-c2ccc(Br)cc2)nc1-c1ccc(Br)cc1`, the melting point fell in the range of 136 to 137 °C.

The molecule `CCOC(=O)C1=C(C)NC(C)=C(C(=O)OCCN2CCN(C(c3ccccc3)c3ccccc3)CC2)C1c1cccc(Cl)c1Cl` (configuration not stated) gave a melting point of 87 to 89 °C.

For `CC(C)C(=O)Oc1cccc2c(-c3ccccc3)c3cccc(OC(=O)C(C)C)c3c(OC(=O)C(C)C)c12`, the melting point came out at 224 °C.

As for `CNc1ccc(NC(=O)c2ccc(-c3[nH]nc4c3C(=O)c3c(NC(=O)NN5CCOCC5)cccc3-4)s2)cc1`, the melting point was determined as 230 °C.

In turn, `CS(=O)(=O)c1ccc(C(=O)Nc2ccc(Cl)c(-c3ccc(C(=O)NO)cn3)c2)c(Cl)c1` registered a melting point of 190 to 193 °C.

The molecule `O=C1Nc2ccc(C(F)(F)F)cc2C1c1ncnc2nn(C3CCCCC3)cc12` (configuration not stated) displayed a melting point greater than 300 °C.

The molecule `O=Cc1ccccc1-c1noc2cc(Cl)ccc12` registered a melting point of 116 to 117 °C.

Take `CCN(CC)C(=O)CCS(=O)(=O)c1cc(-c2ccccc2)nc2ccccc12`: the melting point amounted to 100 °C.

As to `COc1ccc(S(N)(=O)=O)cc1CC(C)=O`, the melting point was 138 to 139 °C.

In turn, `O=C(CCl)n1ccc2cc(F)ccc21` registered a melting point of 236 to 237 °C.

For the molecule `CCN1C(=O)C(C)(C)C(=O)N(C)c2cc(CN(CCn3ccc4oc(C)cc4c3=O)Cc3ccccc3C#N)ccc21`, the melting point was in the range of 157 to 159 °C.

On to `Cc1cc(C)n(CC(C)C)c(=O)c1C(=O)O`, for which the melting point lay in the range of 93 to 95 °C.

The molecule `CCc1cn(C2CC(F)C(CO)O2)c(=O)[nH]c1=S` (configuration not stated) displayed a melting point of 139 to 140 °C.

`C=CCC(CC)(C(=O)c1ccc(OCCO)cc1)N(C)C` (configuration not stated): the melting point was in the range of 80 to 82 °C.

For `CCCNc1nc(N)nc2c1ncn2C1C=CC(CO)C1` (configuration not stated), the melting point was 138 to 140 °C.

`O=C(O)c1cn(-c2ccc(F)c([N+](=O)[O-])c2)c2nc(Cl)c(F)cc2c1=O`: the melting point is greater than 270 °C.

For the molecule `COCCOc1ccc(N)cc1S(=O)(=O)O`, the melting point is greater than 250 °C.

As to `O=C1C(CCO)Oc2ccc(Cl)cc2N1Cc1cccc(Cl)c1` (configuration not stated), the melting point lay within 90 to 92 °C.

`CCOC(=O)/C(Cl)=N/Nc1ccc(OC)cc1` gave a melting point of 87 to 89 °C.

On to `CC(C)(C)c1cc(CCc2ccccc2NC(=O)N2CCN(c3ccccc3)CC2)cc(C(C)(C)C)c1O`, for which the melting point was in the range of 155 to 156 °C.

Molecule `Nc1ccc(-c2cc(=O)c(C(=O)O)cn2-c2cccnc2)cc1` registered a melting point of 207 to 208 °C.

For `CS(=O)(=O)Oc1ccc2c(c1)CN(C(=O)CCCCCN1CCN(c3cccc(C(F)(F)F)c3)CC1)C2`, the melting point was 109 °C.

As to `CC(C)(C)OC(=O)NCc1nc(C(=O)O)cs1`, the melting point stood at 185 °C.

Consider `CC(C)(C)c1cc(SC(=S)NN)cc(C(C)(C)C)c1O`, for which the melting point turned out to be 146 °C.

With `CCCCOCCc1ccc(C2=CCC(c3ccc(Br)cc3)CC2)cc1` (configuration not stated), the melting point was in the range of 86.5 to 89.5 °C.

For the molecule `N#Cc1ccc(N(Cc2ccc(OS(N)(=O)=O)cc2)n2cnnc2)cc1-c1ccoc1`, the melting point was 195 to 196 °C.

With `NCCOc1ccc(O)cc1`, the melting point came to 175 °C.

`CC(C)(C)OC(=O)CN1C(=O)SC(Cc2ccc(N3CCC(NCC(O)c4ccc(O)c(NS(C)(=O)=O)c4)CC3)cc2)C1=O` (configuration not stated) had a melting point of 130 to 132 °C.

In turn, `CCOC(=O)CN1CCC(CNC(=O)c2cc(Cl)c(N)[nH]c2=O)CC1` displayed a melting point of 162 to 164 °C.

`O=C1OCN(C(=O)OCc2ccccc2)[C@H]1Cc1ccccc1` displayed a melting point of 85.5 to 86.5 °C.

In turn, `O=C1CCC(N2C(=O)c3ccccc3C2=S)C(=O)N1` (configuration not stated) showed a melting point of 255 °C.

`O=C1CCCc2nc3ccccc3c(NCc3ccc(F)cc3)c21` showed a melting point of 158 to 159 °C.

With `CC(C)(C)CN(CC(C)(C)C)C(=O)C(O)(C(=O)O)c1ccc(Cl)c(Cl)c1` (configuration not stated), the melting point lay in the range of 94 to 95 °C.

For `CC1=CC(=O)C(C)=C(CCC(C)(C)COc2ccc(CC3SC(=O)NC3=O)cc2)C1=O` (configuration not stated), the melting point stood at 173 °C.

In turn, `CCOC(=O)C1=C(CS(=O)(=O)c2ccccc2)Nc2ccnc(OC(C)C)c2C1c1ccccc1C(F)(F)F` (configuration not stated) gave a melting point of 177 to 182 °C.

Consider `CC1(C)CCC(C)(C)c2cc(C3(c4ccc(C(=O)O)cc4)OCCO3)c(OCc3ccccc3)cc21`, for which the melting point fell in the range of 222 to 228 °C.

In turn, `CC1(C)c2cc(NS(C)(=O)=O)ccc2CC2C1CCCN2CC1CCCCC1` (configuration not stated) came in with a melting point of 214 to 217 °C.

For the molecule `N#Cc1cn(Cc2ccccc2)nn1`, the melting point was 78 to 79 °C.

`NS(=O)(=O)c1ccc(NN=Cc2ccc(Br)cc2)cc1` registered a melting point of 190 to 192 °C.

In turn, `Cc1cccc(-n2nc(C)c3c(Cl)c4ccccc4nc32)n1` yielded a melting point of 154 °C.

With `CCCCCS(=O)(=O)NC(=O)CCc1ccc(OCCOC)cc1OCc1nc(-c2ccccc2)oc1C`, the melting point lay within 95.9 to 96.7 °C.

Turning to `N#Cc1cc(C(=O)NNC(=O)c2occ(-c3ccccc3)c2-c2ccccc2)ccc1O`, the melting point lay within 178 to 179 °C.

For `O=C(O)CN1C(=O)C(=Cc2c(-c3ccccc3)[nH]c3ccccc23)SC1=S`, the melting point lay within 258 to 262 °C.

In the case of `CCOC(=O)C1OC1C(=O)NCc1ccccc1` (configuration not stated), the melting point lay within 90 to 91 °C.

Regarding `CC(C)C(NC(=O)c1ccc(-c2ccccc2)cc1)C(=O)O` (configuration not stated), the melting point came out at 168 °C.

Consider `c1ccc(Cn2cnc3cncnc32)cc1`, for which the melting point was 99 to 100 °C.

Molecule `CS(=O)(=O)c1ccc(C(CC2CCCC2)C(=O)Nc2ccccn2)cc1Br` (configuration not stated) registered a melting point of 99 to 101 °C.

Molecule `O=C1C(=O)c2ccccc2C2=C1SCC1(CCC(c3ccccc3)CC1)O2` (configuration not stated) gave a melting point of 183 to 187 °C.

For `COC(=O)c1ccc(NC(=N)Nc2nc(-c3ccccc3)cs2)cc1`, the melting point lay within 189 to 191 °C.

For the molecule `O=C1CCCc2ccc(=O)[nH]c21`, the melting point was 253 °C.

On to `CS(=O)(=O)OC1CC(n2ccc(=O)[nH]c2=O)OC1COC(c1ccccc1)(c1ccccc1)c1ccccc1` (configuration not stated), for which the melting point was in the range of 106 to 108 °C.

As for `COCC1COc2cc3ncnc(Nc4cccc(I)c4)c3cc2O1` (configuration not stated), the melting point was 175 to 177 °C.

As for `O=C(CCCCCN1CCN(c2cccc(C(F)(F)F)c2)CC1)N1Cc2ccc(OCCN3CCCCC3)cc2C1`, the melting point was 88 °C.

`CCOC(=O)/C=C(C)/C=C/C1=C(c2ccc3c(c2)C(C)(C)CCC3(C)C)CCC1` returned a melting point of 83 to 86 °C.

Consider `N#CSC1=Nc2ccccc2Sc2nccn21`, for which the melting point was 111 to 113 °C.

Molecule `Cc1cccc(-c2nc(-c3ccc(F)cc3)sc2-c2ccnc(N)c2)c1` came in with a melting point of 160 to 162 °C.

In the case of `COC(=O)c1ccc(-c2nc(-c3ccccc3C(F)(F)F)cs2)cc1`, the melting point was in the range of 122 to 123 °C.

In turn, `COc1cc(CCO[Si](C)(C)C(C)(C)C)c(C2=CC3CCC2N3C(=O)OC(C)(C)C)cn1` (configuration not stated) registered a melting point of 75 to 76 °C.

`CCOC(=O)c1sc(Br)c2c1OCO2` came in with a melting point of 93 °C.

Regarding `C=CC(C)(C)C(O)(COc1ccc(-c2ccccc2)cc1)Cn1ccnc1` (configuration not stated), the melting point fell in the range of 151 to 153 °C.

Consider `CC(=O)N1CCN(C2CCN(c3ccc(NC(=O)c4cnn(-c5ccc(Cl)cc5)c4C)cc3C#N)CC2)CC1`, for which the melting point was 247 °C.

Molecule `O=C(O)c1cc(S(=O)(=O)c2ccccc2)ccc1[N+](=O)[O-]` yielded a melting point of 210 to 212 °C.

`O=CN1CCN(Cc2nc3ccccc3[nH]2)CC1` had a melting point of 194 to 198 °C.

The molecule `Brc1ccc(-c2ccc(I)cc2)cc1` came in with a melting point of 177 to 179 °C.

`CCOC(=O)C1C(=O)N(c2ccccc2)c2cc3ccoc3cc21` (configuration not stated): the melting point was 108 to 110 °C.

With `C[C@@H](S[C@H]1CO[C@H](/C=C/C=C/c2ccc(C#N)cc2)OC1)[C@](O)(Cn1cncn1)c1ccc(F)cc1F`, the melting point lay within 147 to 149 °C.

`Cc1ccc2c(c1Cl)S(=O)(=O)NCN2C1CC1` came in with a melting point of 230 to 232 °C.

Take `CSc1ncnc2c(N(C)C3CCCCC3)nc(Cl)nc12`: the melting point lay in the range of 135 to 137 °C.

For `NC(=O)C(CCc1cc(Cl)ccc1N1CCCCC1)c1ccc(C(=O)O)cc1` (configuration not stated), the melting point was 192 to 195 °C.

For `COC1C=C(C)C(=O)CC(C)(C)C1OC(=O)c1ccc([N+](=O)[O-])c([N+](=O)[O-])c1` (configuration not stated), the melting point lay in the range of 103 to 104 °C.

The molecule `Cc1cccc(-c2cn(C)cc(-c3ccc(Br)cc3)c2=O)c1` yielded a melting point of 201 to 204 °C.

Consider `CCCSc1nc(NC2CC2c2ccc(OC)c(C)c2)c2nnn(C3CC(O)C(O)C3O)c2n1` (configuration not stated), for which the melting point was in the range of 135 to 136 °C.
